# Test results reported in US20250255867A1 (Kadmon Corporation, LLC, priority 2022, published 2025).
# Details: Cohort 3 400 mg QD
# Procedure: All responses were assessed by the investigators.
# Reported Adverse Events. […] All-cause mortality data collected during the study were assessed for all enrolled participants. Disease progression related death was not reported as AE.
# Number of Participants With Treatment-emergent Adverse Events (TEAEs), and Treatment-emergent Serious Adverse Events (TESAEs). […] TEAEs included both SAEs and non-SAEs. […] Analysis was performed on safety population which included all participants who received at least 1 dose of study medication.
compound,measurement,value
"CC(C)NC(=O)COc1cccc(-c2nc(Nc3ccc4[nH]ncc4c3)c3ccccc3n2)c1 [Belumosudil, 2-{3-[4-(1H-indazol-5-ylamino)-2-quinazolinyl]phenoxy}-N-(propan-2-yl) acetamide]",Blood loss anaemia: # Events,0
same,Blood loss anaemia: Affected/At Risk,0/21
same,Blood loss anaemia: Affected/At Risk (%),(0%)
same,Bronchial secretion retention: # Events,0
same,Bronchial secretion retention: Affected/At Risk,0/21
same,Bronchial secretion retention: Affected/At Risk (%),(0%)
same,Bronchitis: # Events,1
same,Bronchitis: Affected/At Risk,1/21
same,Bronchitis: Affected/At Risk (%),(4.76%)
same,Bronchoscopy: # Events,0
same,Bronchoscopy: Affected/At Risk,0/21
same,Bronchoscopy: Affected/At Risk (%),(0%)
same,Catheter site haemorrhage: # Events,0
same,Catheter site haemorrhage: Affected/At Risk,0/21
same,Catheter site haemorrhage: Affected/At Risk (%),(0%)
same,Chills: # Events,0
same,Chills: Affected/At Risk,0/21
same,Chills: Affected/At Risk (%),(0%)
same,Chronic kidney disease: # Events,0
same,Chronic kidney disease: Affected/At Risk,0/21
same,Chronic kidney disease: Affected/At Risk (%),(0%)
same,Conjunctival haemorrhage: # Events,1
same,Conjunctival haemorrhage: Affected/At Risk,1/21
same,Conjunctival haemorrhage: Affected/At Risk (%),(4.76%)
same,Conjunctivitis: # Events,3
same,Conjunctivitis: Affected/At Risk,3/21
same,Conjunctivitis: Affected/At Risk (%),(14.29%)
same,Constipation: # Events,4
same,Constipation: Affected/At Risk,3/21
same,Constipation: Affected/At Risk (%),(14.29%)
same,Contrast media allergy: # Events,0
same,Contrast media allergy: Affected/At Risk,0/21
same,Contrast media allergy: Affected/At Risk (%),(0%)
same,Contusion: # Events,4
same,Contusion: Affected/At Risk,3/21
same,Contusion: Affected/At Risk (%),(14.29%)
same,Corneal abrasion: # Events,0
same,Corneal abrasion: Affected/At Risk,0/21
same,Corneal abrasion: Affected/At Risk (%),(0%)
same,Corneal infection: # Events,0
same,Corneal infection: Affected/At Risk,0/21
same,Corneal infection: Affected/At Risk (%),(0%)
same,Cough: # Events,9
same,Cough: Affected/At Risk,7/21
same,Cough: Affected/At Risk (%),(33.33%)
same,Decreased appetite: # Events,4
same,Decreased appetite: Affected/At Risk,4/21
same,Decreased appetite: Affected/At Risk (%),(19.05%)
same,Dehydration: # Events,2
same,Dehydration: Affected/At Risk,2/21
same,Dehydration: Affected/At Risk (%),(9.52%)
same,Depression: # Events,3
same,Depression: Affected/At Risk,3/21
same,Depression: Affected/At Risk (%),(14.29%)
same,Diarrhoea: # Events,11
same,Diarrhoea: Affected/At Risk,7/21
same,Diarrhoea: Affected/At Risk (%),(33.33%)
same,Dizziness: # Events,2
same,Dizziness: Affected/At Risk,2/21
same,Dizziness: Affected/At Risk (%),(9.52%)
same,Drug eruption: # Events,0
same,Drug eruption: Affected/At Risk,0/21
same,Drug eruption: Affected/At Risk (%),(0%)
same,Dry eye: # Events,2
same,Dry eye: Affected/At Risk,2/21
same,Dry eye: Affected/At Risk (%),(9.52%)
same,Dry skin: # Events,1
same,Dry skin: Affected/At Risk,1/21
same,Dry skin: Affected/At Risk (%),(4.76%)
same,Dyspepsia: # Events,1
same,Dyspepsia: Affected/At Risk,1/21
same,Dyspepsia: Affected/At Risk (%),(4.76%)
same,Dysphagia: # Events,3
same,Dysphagia: Affected/At Risk,2/21
same,Dysphagia: Affected/At Risk (%),(9.52%)
same,Dyspnoea exertional: # Events,0
same,Dyspnoea exertional: Affected/At Risk,0/21
same,Dyspnoea exertional: Affected/At Risk (%),(0%)
same,Dyspnoea: # Events,6
same,Dyspnoea: Affected/At Risk,6/21
same,Dyspnoea: Affected/At Risk (%),(28.57%)
same,Embolism: # Events,1
same,Embolism: Affected/At Risk,1/21
same,Embolism: Affected/At Risk (%),(4.76%)
same,Enamel anomaly: # Events,0
same,Enamel anomaly: Affected/At Risk,0/21
same,Enamel anomaly: Affected/At Risk (%),(0%)
same,Epidural lipomatosis: # Events,0
same,Epidural lipomatosis: Affected/At Risk,0/21
same,Epidural lipomatosis: Affected/At Risk (%),(0%)
same,Epstein-Barr virus infection: # Events,0
same,Epstein-Barr virus infection: Affected/At Risk,0/21
same,Epstein-Barr virus infection: Affected/At Risk (%),(0%)
same,Erectile dysfunction: # Events,0
same,Erectile dysfunction: Affected/At Risk,0/21
same,Erectile dysfunction: Affected/At Risk (%),(0%)
same,Eye irritation: # Events,0
same,Eye irritation: Affected/At Risk,0/21
same,Eye irritation: Affected/At Risk (%),(0%)
same,Eye pain: # Events,0
same,Eye pain: Affected/At Risk,0/21
same,Eye pain: Affected/At Risk (%),(0%)
same,Eye pruritus: # Events,0
same,Eye pruritus: Affected/At Risk,0/21
same,Eye pruritus: Affected/At Risk (%),(0%)
same,Fall: # Events,1
same,Fall: Affected/At Risk,1/21
same,Fall: Affected/At Risk (%),(4.76%)
same,Fatigue: # Events,14
same,Fatigue: Affected/At Risk,10/21
same,Fatigue: Affected/At Risk (%),(47.62%)
same,Flatulence: # Events,1
same,Flatulence: Affected/At Risk,1/21
same,Flatulence: Affected/At Risk (%),(4.76%)
same,Flushing: # Events,0
same,Flushing: Affected/At Risk,0/21
same,Flushing: Affected/At Risk (%),(0%)
same,Fungal infection: # Events,0
same,Fungal infection: Affected/At Risk,0/21
same,Fungal infection: Affected/At Risk (%),(0%)
same,Gamma-glutamyltransferase increased: # Events,0
same,Gamma-glutamyltransferase increased: Affected/At Risk,0/21
same,Gamma-glutamyltransferase increased: Affected/At Risk (%),(0%)
same,Gastric ulcer: # Events,0
same,Gastric ulcer: Affected/At Risk,0/21
same,Gastric ulcer: Affected/At Risk (%),(0%)
same,Gastrooesophageal reflux disease: # Events,2
same,Gastrooesophageal reflux disease: Affected/At Risk,2/21
same,Gastrooesophageal reflux disease: Affected/At Risk (%),(9.52%)
same,Generalised oedema: # Events,1
same,Generalised oedema: Affected/At Risk,1/21
same,Generalised oedema: Affected/At Risk (%),(4.76%)
same,Genital infection fungal: # Events,0
same,Genital infection fungal: Affected/At Risk,0/21
same,Genital infection fungal: Affected/At Risk (%),(0%)
same,Glaucoma: # Events,0
same,Glaucoma: Affected/At Risk,0/21
